Laboratory results as given in paper PMC5623190, “Target Identification of Mycobacterium tuberculosis Phenotypic Hits Using a Concerted Chemogenomic, Biophysical, and Structural Approach” (Frontiers in Pharmacology, 2017).
≈ marks a conversion by molar mass, not a printed value. Where “and” joins values, the source holds several entries; their conditions need not be identical. Identical values can stand only once. Like-named read-outs stand apart in the source and are kept apart here.

Tests used:
[1] = target: M. tuberculosis EthR (Mycobacterium tuberculosis, UniProt P9WMC1); experiment: Surface plasmon resonance assay of EthR binding to ethA promoter DNA; details: for LE (ligand efficiency): ligand efficiency for EthR inhibition
Protocol: The surface plasmon resonance (SPR) assay was performed on a BIAcore T100 with a protocol similar to what was previously described (Surade et al., [2014]). […] For the initial screening a single run was performed for each compound. A 2 μM EthR solution was then incubated individually with each of the compounds at 100 μM, in 2 mM MgCl2, 10 mM TRIS/HCL pH 7.5, 200 mM NaCl, 0.1 mM EDTA, and 2% DMSO and flowed over the chip at 20 μl/min for 120 s. For dissociation 150 s were given using the same flow rate. Binding was determined by subtracting the response of the control channel from the experimental channel at steady-state. Regeneration of the chip was performed between samples by flowing 0.03% SDS in running buffer for 60 s at 20 μl/min. […] Data were analyzed in Prism 5 (Graphpad software) and IC50 were calculated using a non-linear regression model. Dose response experiments were performed in triplicate.

[2] = test system: Mycobacterium tuberculosis H37Rv; parameters: method as in Ballell et al., 2013; details: M. tuberculosis whole cell; ref Ballell et al., 2013; cited from earlier work
[3] = target: InhA (Mycobacterium tuberculosis, UniProt P9WGR1); experiment: InhA spectrophotometric enzymatic assay (NADH oxidation, 2-trans-octanoyl-CoA); format: biochemical; details: compound at 100 μM, 100 nM InhA, triplicate
Protocol: InhA activity was assessed by a spectrophotometric assay that followed the oxidation of NADH at λ = 340 nm in the presence of 2-trans-octanoyl-CoA. Compounds were dissolved in 100% DMSO. The enzyme reaction contains 30 mM PIPES pH 7.5, 50 mM NaCl, 1% (v/v) DMSO and 0.1 mM EDTA. InhA (100 nM) was pre-incubated for 10 min at room temperature with 0.25 mM NADH and compounds at a final concentration of 100 μM in 150 μl reaction volume. The reaction is started by the addition of 2-trans-octanoyl-CoA at a final concentration of 1.5 mM, prepared as described previously (He et al., [2006]). The reactions were followed for 20 min using a spectrophotometer plate reader (CLARIOstar—BMG LABTECH). Inhibition percentage was calculated based on the initial rates of reaction. All experiments were performed in triplicate.

[4] = inhibition of EthR binding to ethA promoter DNA
[5] = SPR dose response 0.78-100 μM, triplicate, table head prints no unit, μM, read-out: IC50
[6] = IC50, SPR dose response 0.78-100 μM, triplicate, table head prints no unit, μM

Chain of M. tuberculosis EthR (P9WMC1 whole entry, looked up): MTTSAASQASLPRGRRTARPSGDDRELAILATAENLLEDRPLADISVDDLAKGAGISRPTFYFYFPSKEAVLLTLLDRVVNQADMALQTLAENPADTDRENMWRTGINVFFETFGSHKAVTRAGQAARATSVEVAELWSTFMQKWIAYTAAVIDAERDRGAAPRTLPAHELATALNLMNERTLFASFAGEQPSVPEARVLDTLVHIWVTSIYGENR
Chain of InhA (P9WGR1 whole entry, looked up): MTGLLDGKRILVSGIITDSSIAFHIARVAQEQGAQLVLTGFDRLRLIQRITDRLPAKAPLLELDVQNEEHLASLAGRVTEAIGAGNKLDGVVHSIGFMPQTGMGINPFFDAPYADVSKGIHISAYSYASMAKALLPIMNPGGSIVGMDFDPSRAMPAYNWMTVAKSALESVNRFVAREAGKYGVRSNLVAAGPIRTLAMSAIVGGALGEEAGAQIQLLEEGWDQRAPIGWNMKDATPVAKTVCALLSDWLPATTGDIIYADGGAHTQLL

Structure (SMILES) | inhibition at 100 µM [1] | LE (ligand efficiency) [1] | MIC [2] | IC50 [1, 6] | further results
N=C(Nc1nc(-c2ccccn2)cc2ccccc12)c1cccc(Cl)c1 [GSK381407a] | – | – | – | – | SPR Inhibition (%) [1, 4]: 59%
O=C(COc1cccc(F)c1)Nc1nc(-c2ccccn2)cs1 [Compound 7] | 93% | 0.26 | – | – | IC50 [1, 5]: 50 µM
CSc1ccc(C(=O)Nc2nc(-c3ccccn3)cs2)cc1 [Compound 10] | 74% | – | 8.7 µM (≈ 2.85 µg/mL) | – | –
Nc1ccccc1Nc1ccc2c(c1)OCO2 [Compound 12] | 67% | – | 1.8 µM (≈ 0.411 µg/mL) | – | IC50 ([1]; SPR IC50 (µM), inhibition of EthR binding to ethA promoter DNA): > 100 µM
Fc1ccc2nc(Nc3nc(-c4ccccn4)cs3)sc2c1 [Compound 6] | 97% | 0.30 | 2.3 µM (≈ 0.755 µg/mL) | 22 µM | –
Br.CC1(C)NC(N)=NC(=N)N1OCCCOc1ccc(Cl)cc1Cl [BRL-51091am] | – | – | – | – | SPR Inhibition (%) [1, 4]: 41%
O=C(C1CCN(c2nnc(-n3cccc3)s2)CC1)N1CCC(Cc2ccccc2)CC1 [Compound 3] | 100% | 0.24 | 4.2 µM (≈ 1.83 µg/mL) | 3.9 µM | –
Clc1ccc(Nc2nc(-c3ccccn3)cs2)nc1 [Compound 5] | 99% | – | 5.9 µM (≈ 1.7 µg/mL) | – | –
O=C(Cc1ccc(F)cc1)Nc1nc(-c2ccccn2)cs1 [Compound 2] | 100% | 0.31 | 9.3 µM (≈ 2.91 µg/mL) | 9.9 µM | –
c1ccc(-c2csc(Nc3nc4cc5c(cc4s3)OCO5)n2)nc1 [Compound 4] | – | 0.28 | 2.7 µM (≈ 0.957 µg/mL) | – | IC50 [1, 5]: ~13 µM and 13 µM; Inhibition (100 μM) (%) ([1]; SPR, inhibition of EthR binding to DNA, compound at 100 μM, 2 μM EthR, single run): 100%
O=C(NC1=NCCS1)c1sc2cc(F)ccc2c1Cl [Compound 1] | 100% | 0.35 | 8.6 µM (≈ 2.71 µg/mL) | ~12 µM and 12 µM | –
CCc1ccc(Nc2nnc(SCc3cc(C)on3)s2)cc1 [Compound 8] | 92.8% | – | 2.8 µM (≈ 0.931 µg/mL) | – | inhibition at 100 µM [3]: > 40%
CCCCS(=O)(=O)Nc1ccc2cnn(C)c2c1 [GSK3011724a] | – | – | – | – | SPR Inhibition (%) [1, 4]: 28%
